From publication PMC7849180 (Frontiers in Pharmacology, 2020)

How the values were obtained:
Ba/F3-EpoR cell line = assay: Cell activity of Ba/F3-EpoR cell line; assay type: cell-based; conditions: read-out: IC50, inhibition of cell activity
From the text: Suzhou Zelgen Biopharmaceuticals Co., Ltd. Jaktinib Hydrochloride Tablets Chemical Drug Class 1 New Drug and ZG0178. However, the inhibitory effect on the activity of Ba/F3-EpoR cell line […]
respectively. Obviously, this selective inhibition is associated with the aberrant expression of JAK2 in Ba/F3-EpoR-JAK2V617F mutant cells, and the degree of ZG0163 inhibition on JAK-STAT signaling pathway in this cell line. […]
cells, and the effects of ZG0163 was similar to those of positive control compounds, […]
In Vitro Inhibitory Effect of ZG0128 on Cell Lines Transfected with Oncogenes and Primary Blood Cells in Patients with Polycythemia Vera
In vitro cell culture assay was used to determine whether compound ZG0128 […]
cell line harboring a JAK2V617F mutation, and 8 HCD-57 cell lines stably transfected with oncogenic mutations JAK2V617F, MPLW515L, KITD816V, NPM-ALK, FLT3-ITD, FLT3D835H, FLT3D835Y and KRasG12V, respectively. In addition, study the inhibitory effects of compound ZG0128 on the growth of hematopoietic progenitor cells in patients with polycythemia vera.
9 cell lines were similar to those of positive control drug ZG0192. At the sub-micromolar concentration, both compounds ZG0128 and ZG0192 were able to […]
the growth of HCD-57 cells transfected with oncogenic mutations JAK2V617F, […]
spectrum inhibitory effect on tyrosine kinases. […]

IKKβ = IKKβ (Homo sapiens, UniProt O14920); assay: Phosphorylation of IκBα by IKKβ; assay type: biochemical
Sequence of IKKβ (O14920 whole entry, species assumed): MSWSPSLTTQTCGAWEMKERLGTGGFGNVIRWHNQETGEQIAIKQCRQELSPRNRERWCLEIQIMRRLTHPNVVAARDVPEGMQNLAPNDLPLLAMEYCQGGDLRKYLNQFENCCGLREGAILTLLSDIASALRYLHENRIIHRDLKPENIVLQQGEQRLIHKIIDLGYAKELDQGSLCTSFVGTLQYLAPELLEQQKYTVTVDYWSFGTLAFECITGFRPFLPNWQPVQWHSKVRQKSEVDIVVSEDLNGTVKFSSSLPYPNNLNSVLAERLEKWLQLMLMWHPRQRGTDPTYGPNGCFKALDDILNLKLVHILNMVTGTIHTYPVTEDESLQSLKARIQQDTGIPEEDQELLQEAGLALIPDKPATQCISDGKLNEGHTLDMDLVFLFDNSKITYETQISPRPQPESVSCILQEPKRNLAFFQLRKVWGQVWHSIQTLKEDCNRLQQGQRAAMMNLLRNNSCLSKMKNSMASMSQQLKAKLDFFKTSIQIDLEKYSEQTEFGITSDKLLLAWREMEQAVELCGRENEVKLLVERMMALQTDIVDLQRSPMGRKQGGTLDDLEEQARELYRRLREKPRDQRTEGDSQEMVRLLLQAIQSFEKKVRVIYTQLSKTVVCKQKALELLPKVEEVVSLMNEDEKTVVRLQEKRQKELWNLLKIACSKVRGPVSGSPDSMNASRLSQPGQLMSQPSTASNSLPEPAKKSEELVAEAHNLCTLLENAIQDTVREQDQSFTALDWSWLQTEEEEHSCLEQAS

[1] = Plasma pharmacokinetics, single ascending dose (SAD); assay type: in vivo, human; conditions: for Cmax, geometric mean (CV%) / Tmax, median (min–max): fasting
Method: In SAD part, volunteers were designed into eight SAD cohorts (25, 50, 100, 150, 200, 250, 300 and 400 mg). Among these cohorts, 25 mg was bisected by the 50 mg specification under good manufacturing practices (GMP) condition and provided the certificate of analysis. […] Jaktinib or placebo was administrated after an overnight fast.
For MAD cohorts, blood samples were collected at 0, 0.25, 0.5, 1, 1.5, 2, 3, 4, 5, 6, 8 and 12 h on day 1; 0 h on day 2, 3, 4, 6 and 7; 0, 0.25, 0.5, 1, 1.5, 2, 3, 4, 5, 6, 8, 12, 24, 36 and 48 h on day 10. In food effect cohort, blood samples were collected at 0, 0.25, 0.5, 1, 1.5, 2, 3, 4, 5, 6, 8, 12, 24, 36, 48, 72, 96 and 120 h in period one of group A; 0, 0.25, 0.5, 1, 1.5, 2, 3, 4, 5, 6, 8, 12, 24, 36 and 48 h in period two of group A and the two periods of group B. Blood samples were centrifuged at 3,000 rpm for 10 min at 2–8 °C and stored at -80 °C until liquid chromatography-mass spectrophotometry (LC-MS/MS) analysis. Urine and feces samples were collected in period one of group A of food effect cohort with the intervals 0, 0–6, 6–12, 12–24, 24–48, 48–72, 72–96, 96–120 and 0–120 h, respectively. […]

[2] = tested on: cells transformed by selected oncogenic mutants of tyrosine kinases; assay: Inhibition of transformed cells; assay type: cell-based
[3] = Bone marrow micronucleus test; assay type: in vivo, NIH mice; conditions: 122, 244, 488 mg/kg oral gavage, 4 days
From the text: Suzhou Zelgen Biopharmaceuticals Co., Ltd. Jaktinib Hydrochloride Tablets Chemical Drug Class 1 New Drug chromosomal structural aberrations in CHL cells. Therefore, the results of the chromosomal aberration test were negative.
Mouse Bone Marrow Micronucleus Test
A mouse bone marrow micronucleus test of ZG0128 has been performed. After multiple doses of ZG0128 are given to mice via oral gavage, the incidence of micronucleated polychromatic erythrocytes in the bone marrow is observed to estimate the damage to chromosomal integrity in bone marrow cells and subsequent abnormality of chromosome segregation, so as to determine the presence of genotoxicity. The results […]
once a day for 4 consecutive days, neither damage to the chromosomal integrity in bone marrow cells nor abnormal chromosome segregation was observed. Therefore, the results of the micronucleus test were negative.
A Toxicity Test on Fertility and Early Embryo Development in Wistar Rats Administered ZG0128 by Oral Gavage
A toxicity test on the fertility and early embryo development in Wistar rats given ZG0128 by oral gavage was completed. In this test, female and male rats were given a continuous dose of ZG0128 prior to mating until embryo implantation to observe the toxicity or interference of ZG0128 on the fertility and early embryo development in […]
groups of 18, 36, and 72 mg/kg of ZG0128. […]

[4] = 25–400 mg, linear mixed effects model

For Jaktinib, the IC50 (Ba/F3-EpoR cell line) was 1.5 µM, the “effect on phosphorylation of IκBα by IKKβ” value (IKKβ) was “no significant effects” and the “slope (90% CI) for ln AUC0-∞ vs dose” value [1, 4] was 1.15 (0.96–1.34). For the same molecule, the “slope (90% CI) for ln Cmax vs dose” value [1, 4] was 1.00 (0.86–1.15), the “Cmax, geometric mean (CV%)” value ([1]; single 25 mg dose) was 34.50 (51.6) ng/ml and the “Tmax, median (min–max)” value ([1]; single 25 mg dose) was 2.00 (1.00–4.00) h. The “Cmax, geometric mean (CV%)” value ([1]; single 50 mg dose) was 77.56 (72.8) ng/ml, the “Tmax, median (min–max)” value ([1]; single 50 mg dose) was 3.00 (0.50–5.00) h and the “Cmax, geometric mean (CV%)” value ([1]; single 100 mg dose) was 183.48 (33.3) ng/ml. For the same molecule, the “Tmax, median (min–max)” value ([1]; single 100 mg dose) was 1.25 (0.50–3.00) h, the “Cmax, geometric mean (CV%)” value ([1]; single 150 mg dose) was 297.18 (36.6) ng/ml and the “Tmax, median (min–max)” value ([1]; single 150 mg dose) was 2.50 (1.50–4.00) h. For the same molecule, the “Cmax, geometric mean (CV%)” value ([1]; single 200 mg dose) was 354.52 (44.6) ng/ml, the “Tmax, median (min–max)” value ([1]; single 200 mg dose) was 2.50 (1.00–3.00) h and the “Cmax, geometric mean (CV%)” value ([1]; single 250 mg dose) was 404.20 (36.9) ng/ml. For the same molecule, the “Tmax, median (min–max)” value ([1]; single 250 mg dose) was 2.00 (1.00–4.00) h, the “Cmax, geometric mean (CV%)” value ([1]; single 300 mg dose) was 510.54 (35.4) ng/ml and the “Tmax, median (min–max)” value ([1]; single 300 mg dose) was 3.00 (0.50–5.00) h. The “Cmax, geometric mean (CV%)” value ([1]; single 400 mg dose) was 579.35 (42.6) ng/ml, the “Tmax, median (min–max)” value ([1]; single 400 mg dose) was 3.50 (2.00–5.00) h and the “CL/F, range across cohorts” value ([1]; single dose 25–400 mg) was 76.212 to 150.190 L/h. The “Vz/F, range across cohorts” value ([1]; single dose 25–400 mg) was 533.561 to 1033.554 L, the “median Tmax, range across cohorts” value ([1]; single dose 25–400 mg jaktinib) was 1.25 to 3.5 h and the “t1/2, range across cohorts” value ([1]; single dose 25–400 mg jaktinib) was 2.952 to 9.040 h. The IC50 [2] was 0.1 µM.

For `Cl.Cl.O.[2H]C1([2H])COCC([2H])([2H])N1c1ccc(Nc2nccc(-c3ccc(C(=O)NCC#N)cc3)n2)cc1` [ZG0128, Jaktinib Dihydrochloride Monohydrate], the micronucleus test result [3] was “negative”.
